Results taken from patent publication US20170042991A1, “COMPOSITIONS COMPRISING GLUTEN PEPTIDES AND USES THEREOF” (ImmusanT, Inc., priority 2014, published 2017).
Non-standard residues stand in square brackets, D forms with d. pGlu = O=C1CC[C@@H](C(=O)O)N1

System: PBMC
Assay: Overnight IFNγ ELISpot assay with fresh PBMC (Example 2)
Format: cell-based, human
Settings: for Percent of maximal response, ELISp: after oral gluten challenge; for IFNγ ELISpot % max Mean: individual peptides 5 μM, Day-6, n = 5, Peptide 2 = CSBio batch
Protocol: Ten HLA-DQ2.5+ adults with celiac disease diagnosed according to the National Institutes of Health Consensus Statement 2004 were enrolled (Table 7).^22 Subjects were required to have followed gluten-free diet for at least one year and without known gluten exposures within the previous two-months. […] Full inclusion and exclusion criteria are described in Table 8. Each of 3 consecutive days subjects consumed 3 cookies that were prepared from approximately 4.5 g wheat gluten, 3 g barley flour protein, and 1.5 g rye flour protein. Blood was collected before and six days after commencing the oral challenge. Blood was collected using a 21G butterfly needle directly into 10 mL lithium heparin tubes (BD Vacutainer® Heparin tube #367880) and QuantiFERON® NIL (0591-0205, Cellestis Ltd., Chadstone VIC 3148 Australia) and QuantiFERON® MITOGEN (0593-0201, Cellestis Ltd.).
Overnight IFNγ ELISpot assays (Human IFN-γ ELISpotPRO kit, transparent, ALP; Mabtech AB, #3420-2APT-10) were performed using PBMC freshly separated from heparinized blood diluted 1:1 in PBS with 2% fetal bovine serum (Stemcell Technologies #07905; Vancouver, BC, V5Z 1B3, Canada) overlaid on density gradient medium (Ficoll-Paque™ PLUS; GE Healthcare Lice Sciences #:17-1440-02) in SepMate™-50 tubes (Stemcell Technologies #15460). PBMC (8 million/mL) were resuspended in serum-free medium with gentamicin and phenol red (X-VIVO™15; Lonza, Walkersville Mass. 21793). PBMC (0.4 million/50 μL/well) and incubated with 50 μL 80% X-vivol5, 0.2% DMSO and 20% PBS in three triplicate wells (“medium only”), or with 50 μL PHA-L 20 μg/ml or peptide at 2× final concentration in 80% X-vivol5, 0.2% DMSO and 20% PBS. Peptide solutions to be added to individual ELISpot wells were prepared in 96-well U-bottom plates (60 μL/well) that were then sealed with adhesive ELISA plate cover slips before replacing the plastic lid and being frozen at −80° C. 96-well plates containing peptide solutions were thawed at room temperature for 10 min while being centrifuged at 300 g immediately prior to being added to ELISpot wells. Peptide pools and mitogen were assessed in triplicate wells, and individual peptides were assessed in duplicate wells. X-VIVO™15 (50 μL) was incubated with 80% X-vivol5, 0.2% DMSO and 20% PBS (50 μL) in triplicate wells (“no PBMC” control). A Zeiss automated ELISpot counter was used to determine spot forming units (SFU) per well (Zellnet Inc., Fort Lee, N.J. 07024). Laboratory staff were unaware of the arrangement of peptide solutions in ELISpot wells during assay setup and plate counting.

Substance | Percent of maximal response, ELISp (Subject 3, Max. 18 SFU) | Percent of maximal response, ELISp (Subject 4, Max. 36 SFU) | Percent of maximal response, ELISp (Subject 6, Max. 16 SFU) | Percent of maximal response, ELISp (Subject 8, Max. 17 SFU) | Percent of maximal response, ELISp (Subject 10, Max. 11 SFU) | IFNγ ELISpot % max Mean [% max] | IFNγ ELISpot responses relative to Peptide 14 5 μM (Peptide 3 10 μg/mL (5.3 μM))
(pE)LQPFPQPELPYPQPQ-amide ([pGlu]LQPFPQPELPYPQPQ-NH2; SMILES CC(C)C[C@H](NC(=O)[C@@H]1CCC(=O)N1)C(=O)N[C@@H](CCC(N)=O)C(=O)N1CCC[C@H]1C(=O)N[C@@H](Cc1ccccc1)C(=O)N1CCC[C@H]1C(=O)N[C@@H](CCC(N)=O)C(=O)N1CCC[C@H]1C(=O)N[C@@H](CCC(=O)O)C(=O)N[C@@H](CC(C)C)C(=O)N1CCC[C@H]1C(=O)N[C@@H](Cc1ccc(O)cc1)C(=O)N1CCC[C@H]1C(=O)N[C@@H](CCC(N)=O)C(=O)N1CCC[C@H]1C(=O)N[C@@H](CCC(N)=O)C(N)=O) [Peptide 1] | 11 % of max | 22 % of max | 25 % of max | 0 % of max | 9 % of max | 13 | –
(pE)PEQPIPEQPQPYPQQ-amide ([pGlu]PEQPIPEQPQPYPQQ-NH2; SMILES CC[C@H](C)[C@H](NC(=O)[C@@H]1CCCN1C(=O)[C@H](CCC(N)=O)NC(=O)[C@H](CCC(=O)O)NC(=O)[C@@H]1CCCN1C(=O)[C@@H]1CCC(=O)N1)C(=O)N1CCC[C@H]1C(=O)N[C@@H](CCC(=O)O)C(=O)N[C@@H](CCC(N)=O)C(=O)N1CCC[C@H]1C(=O)N[C@@H](CCC(N)=O)C(=O)N1CCC[C@H]1C(=O)N[C@@H](Cc1ccc(O)cc1)C(=O)N1CCC[C@H]1C(=O)N[C@@H](CCC(N)=O)C(=O)N[C@@H](CCC(N)=O)C(N)=O) [Peptide 3] | 50 % of max | 83 % of max | 69 % of max | 53 % of max | 9 % of max | 53 | one-half
